Where a SMILES comes first, the peptide text is derived from it. [ ]: non-standard residue; d: D form. The star is where a group is joined. Nle = CCCC[C@H](N)C(=O)O; Hexanoyl = CCCCCC(=O)*; Ahx = NCCCCCC(=O)O
Columns and labels:
hippocampal neurons [1] = experiment: Protection of hippocampal neurons from growth factor deprivation; type: cell-based; conditions: starved 72 hrs, +/− HGF sub-threshold
Experimental: FIG. 46. […] Dissociated hippocampal neurons were starved for 72 hrs+/−HGF at sub-threshold concentrations […] and or Dihexa at 2 different concentrations 10^−8M and 10^−8M. (**p<0.001.*** p<0.000I; Mean+/−SEM).

hippocampal neurons [2] = experiment: Dendritic spine head width in hippocampal neurons; type: cell-based, rat; conditions: 10^−12 M; control 0.67 μm
Excerpt: Neurons were transfected with mRFP-β-actin on day in vitro 6 (DIV6) using LipofectAMINE™ 2000 (Invitrogen) according to the manufacturer's protocol. This protocol yielded the desired 3-5% transfection efficiency thus enabling the visualization of individual neurons. Higher efficiencies obscured the dendritic arbor of individual neurons. Expression of fluorescently tagged actin allowed clear visualization of dendritic spines, as dendritic spines are enriched in actin. On DIV7 the cells were treated with vehicle (H20) or peptides (as described in the text) added to media. […] Slides were dried for at least 20 hours at 4° C. and fluorescent images were obtained with Slidebook 4.2 Digital Microscopy Software driving an Olympus IX81 inverted confocal microscope with a 60× oil immersion lens, NA 1.4 and resolution 0.280 μm Dendritic spine density was measured on primary and secondary dendrites at a distance of at least 150 μm from the soma. Five 50 μm long segments of dendrite from at least 10 neurons per data point were analyzed for each data point reported. […] Dendrite length was determined using the National Institutes of Health's Image J 1.41o program (NIH, Bethesda, Md.) and the neurite tracing program Neuron J (Meijering, Jacob et al. 2004) Spines were manually counted. […]

c-Met receptor [3] = experiment: Spinogenesis after c-Met knock-down with shRNA; type: cell-based, rat; conditions: 10 ng/ml HGF or 10^−12 M analog
Excerpt: Neurons were transfected with mRFP-β-actin on day in vitro 6 (DIV6) using LipofectAMINE™ 2000 (Invitrogen) according to the manufacturer's protocol. This protocol yielded the desired 3-5% transfection efficiency thus enabling the visualization of individual neurons. Higher efficiencies obscured the dendritic arbor of individual neurons. Expression of fluorescently tagged actin allowed clear visualization of dendritic spines, as dendritic spines are enriched in actin. On DIV7 the cells were treated with vehicle (H20) or peptides (as described in the text) added to media. On DIV12 the neurons were fixed (4% paraformaldehyde, 3% sucrose, 60 mM PIPES, 25 mM HEPES, 5 mM EGTA, 1 mM MgCl2, pH 7.4) for 20 min at room temperature and mounted. Slides were dried for at least 20 hours at 4° C. and fluorescent images were obtained with Slidebook 4.2 Digital Microscopy Software driving an Olympus IX81 inverted confocal microscope with a 60× oil immersion lens, NA 1.4 and resolution 0.280 μm Dendritic spine density was measured on primary and secondary dendrites at a distance of at least 150 μm from the soma. Five 50 μm long segments of dendrite from at least 10 neurons per data point were analyzed for each data point reported. Each experiment was repeated at least three times using independent culture preparations. Dendrite length was determined using the National Institutes of Health's Image J 1.41o program (NIH, Bethesda, Md.) and the neurite tracing program Neuron J (Meijering, Jacob et al. 2004) Spines were manually counted.
A target sequence for c-Met was designed using RNAi central design program (see the website located at cancan.cshl.edu/). […]. The shRNA was transfected into cells using the lipofectamine method described above. Verification of receptor knockdown was done by creating a c-Met-6-Myc tagged gene product using the Gateway cloning system (Invitrogen). The Met protein coding sequence was cloned from rat whole brain cDNA using primers obtained from Integrated DNA Technologies, Inc. The amplified product was gel purified and a band corresponding to […] band excised and cloned into a PCAGGS-6-Myc destination vector (Gateway).
To irrefutably confirm that the AngIV analogues act via the HGF/c-met system an shRNA for c-Met was employed to knock-down the receptor. Dissociated hippocampal neurons were transfected with mRFP-β-actin and shMet RNA and receptor knock-down was allowed to take place for 48 hours prior to stimulating with 0.5 μg (per well) HGF (10 ng/ml), Dihexa or Nle1-AngIV (both at 10^−12 M). Longer exposure appeared to be detrimental or toxic to the neurons. Effective c-Met receptor knock-down was verified by transfecting human embryonic kidney (HEK) cells with (0.1 μg) 6-Myc-tagged c-Met, (0.1 μg)shMet or mRFP-β-actin alone. Successful knockdown was confirmed by immunoblotting for Myc tagged c-met using an anti-Myc antibody (FIG. 19).

hippocampal neurons [4] = experiment: Whole-cell recordings of mEPSCs in dissociated hippocampal neurons; type: cell-based, rat; set-up: mean mEPSC frequency: unit not given beside the values; conditions: 5 days
hippocampal neurons [5] = experiment: Spinogenesis in mRFP-β-actin transfected dissociated hippocampal neurons; type: cell-based, rat; conditions: 10^−12 M, acute 30 minute application on DIV12; vehicle 17.4
c-Met receptor [6] = experiment: c-Met phosphorylation in acute adult hippocampal slices; type: cell-based, rat; conditions: 30 minutes
Excerpt: Adult Sprague-Dawley rats (250 g+) obtained from Harlan Laboratories (Ca, USA) were anesthetized with isofluorane (Vet One™, MWI, Meridian, Id., USA) and decapitated. The brain was rapidly removed and placed into ice-chilled artificial cerebrospinal fluid (aCSF) for approximately 30 s. Both hemispheres were separated by a mid-saggital cut and both hippocampi removed. Slices were sectioned cross- and length-wise (400 μm) to ensure penetrability of the drug, using a McIlwain tissue chopper (Brinkmann, Gomshall, UK) and transferred to a gassed (95% O2/5% CO2) incubation chamber containing aCSF for 90 minutes at room temperature. Slices were transferred to fresh tubes, aCSF was removed by careful suctioning and replaced with aCSF containing vehicle (aCSF+aCSF), 100 ng/ml with carrier free adult recombinant Hepatocyte Growth Factor (HGF) (R and D Systems, MN, USA) in aCSF, 10^−10 M Hinge (Harding lab), […], 10^−10 M Dihexa (Harding lab) in aCSF, 10^−12 M Dihexa in aCSF or 50 ng/ml HGF+10^−12 M Dihexa in aCSF for 30 minutes at 37° C. with gentle rocking. aCSF was removed and the slices were lysed using RIPA buffer (Upstate/Milipore, Billerica, Mass.) and inhibitor Cocktails I and II (Sigma, St. Louis, Mo.), sonicated on ice and clarified by centrifugation for 30 minutes, 13,000 rpm at 4° C. The supernatant was removed from the pellet and stored at −80° C. or processed immediately for gel electrophoresis.
Protein concentration of the samples was quantified using the BCA method (Pierce, Rockford, Ill.) following the manufacturers protocol. Samples were added to SDS-PAGE buffer and boiled for 10 min. before loading onto a 4-12% Bis-Tris pre-cast gel (Invitrogen, Carlsbad, Calif.) for electrophoresis. Proteins were transferred onto PVDF membranes (Bio Rad, Hercules, Calif.) and blocked with AquaBlock™ (New England Biolabs, Ipswich, Mass.) for 1 hour at room temperature (RT). Primary antibody incubation was done in AquaBlock™ with rabbit anti-Met and […] phospho-Met (Tyr1234/1235) (1:1000, Cell Signaling Technology, Danvers, Mass.) overnight at 4° C. Alternating washes were done with PBS and PBST. Secondary antibody (IRDye) (Rockland, Gilbertsville, Pa.) incubations were done in AquaBlock™ for one hour at RT. Blots were imaged using LI-COR Odyssey Infrared Imaging System (LI-COR Biosciences, Lincoln, Nebr.).

[7] = neurons transfected with mRFP-β-actin alone, 48 hours, control 13.2
[8] = neurons transfected with mRFP-β-actin and shMet, control 13.5
[9] = 10^−12 M Dihexa or 10 ng/ml HGF, control 3.55±0.60
[10] = Hinge 10^−12 M, HGF 10 ng/ml, Dihexa 10^−12 M, alone or combined, vehicle 5.31±0.35
[11] = non-saturating doses: HGF 50 ng/ml, Dihexa 10^−12 M
[12] = saturating doses: HGF 100 ng/ml, Dihexa 10^−10 M

Compound	protection of neurons from growth factor deprivation (hippocampal neurons [1])	average spine head width (hippocampal neurons [2])	mean spine numbers per 50 μm dendrite length (c-Met receptor [3]; [7])	mean spine numbers per 50 μm dendrite length (c-Met receptor [3]; [8])	mean mEPSC frequency (hippocampal neurons [4]; [9])	mean mEPSC frequency (hippocampal neurons [4]; [10])	mean spine numbers per 50 μm dendrite length (hippocampal neurons [5])	c-Met phosphorylation vs control (aCSF) (c-Met receptor [6]; [11])	c-Met phosphorylation vs control (aCSF) (c-Met receptor [6]; [12])	mean frequency of AMPA-mediated mEPSCs (hippocampal neurons [4]; 10-12 M, vehicle 3.06±0.23 Hz)
CCCCCC(=O)N[C@@H](Cc1ccc(O)cc1)C(=O)N[C@H](C(=O)NCCCCCC(N)=O)[C@@H](C)CC [Dihexa, N-hexanoic-Tyr-Ile-(6)-aminohexanoic amide] (Hexanoyl-Tyr-Ile-[Ahx]-NH2)	protects neurons from growth factor deprivation	0.80 μm	21.8	12.0	6.75±0.99	8.25±0.56	23.9 spines per 50 μm dendrite length	not statistically different from control treated slices	increased c-Met phosphorylation	–
CCCC[C@H](N)C(=O)N[C@@H](Cc1ccc(O)cc1)C(=O)N[C@H](C(=O)N[C@@H](Cc1c[nH]cn1)C(=O)N1CCC[C@H]1C(=O)N[C@@H](Cc1ccccc1)C(=O)O)[C@@H](C)CC [Nle1-AngIV, reference compound] (H-[Nle]YIHPF-OH; N-terminus and C-terminus assumed)	–	0.87 μm	20.0	12.1	–	–	–	–	–	5.27±0.43 Hz
HGF: recombinant hepatocyte growth factor (R&D Systems), ligand of c-Met	–	–	20.6	12.4	7.09±0.53	9.66±0.20	–	not statistically different from control treated slices	increased c-Met phosphorylation	–
